# Results from PubChem BioAssay AID180 (DTP/NCI, 2004).
# Where “and” joins values, the source holds several entries; their conditions need not be identical. Equal values may be shown once.
# Tested on: BDF1 mice, Adenocarcinoma 755 s.c., tumor weight T/C
# Test: NCI In Vivo Anticancer Drug Screen. Data for tumor model Adenocarcinoma 755 (subcutaneous) in B6D2F1 (BDF1) mice
# Conditions: endpoint: mean tumor weight, schedule: Q01DX011 (ip), higher = larger tumour
# Procedure: The antitumor activity of compounds was measured in mice bearing transplantable tumors. Survival or tumor size were measured and the results are expressed as the measurement made in the treated group (T) divided by the measurement made in the vehicle treated control group (C). The tumor model used in this assay is Adenocarcinoma 755 (subcutaneous) in B6D2F1 (BDF1) mice
# [1] = dose: 15.0 mg/kg/injection, vehicle: methylcellulose (MC)
# [2] = dose: 31.0 mg/kg/injection, vehicle: methylcellulose (MC)
# [3] = dose: 62.0 mg/kg/injection, vehicle: methylcellulose (MC)
# [4] = dose: 125.0 mg/kg/injection, vehicle: methylcellulose (MC)
# [5] = dose: 250.0 mg/kg/injection, vehicle: methylcellulose (MC)
# [6] = dose: 600.0 mg/kg/injection, vehicle: carboxymethylcellulose (CMC)
# [7] = dose: 3.5 mg/kg/injection, vehicle: carboxymethylcellulose (CMC)
# [8] = dose: 7.0 mg/kg/injection, vehicle: carboxymethylcellulose (CMC)
# [9] = dose: 25.0 mg/kg/injection, vehicle: saline
# [10] = dose: 100.0 mg/kg/injection, vehicle: saline
# [11] = dose: 25.0 mg/kg/injection, vehicle: carboxymethylcellulose (CMC)
# [12] = dose: 50.0 mg/kg/injection, vehicle: carboxymethylcellulose (CMC)
# [13] = dose: 30.0 mg/kg/injection, vehicle: carboxymethylcellulose (CMC)
# [14] = dose: 60.0 mg/kg/injection, vehicle: carboxymethylcellulose (CMC)
# [15] = dose: 120.0 mg/kg/injection, vehicle: carboxymethylcellulose (CMC)
smiles,measurement,setting,value
C1CN1P1(N2CC2)=NP(N2CC2)(N2CC2)=NP(N2CC2)(N2CC2)=N1,T/C,"dose: 3.0 mg/kg/injection, vehicle: carboxymethylcellulose (CMC)",60 % of control
same,T/C,"dose: 6.0 mg/kg/injection, vehicle: carboxymethylcellulose (CMC)",43 % of control
same,T/C,"dose: 6.0 mg/kg/injection, vehicle: methylcellulose (MC)",17 % of control and 21 % of control
same,T/C,"dose: 12.0 mg/kg/injection, vehicle: carboxymethylcellulose (CMC)",9 % of control
O=C(Nc1ccc(C2=NCCN2)cc1)c1ccc(N=Nc2ccc(C(=O)Nc3ccc(C4=NCCN4)cc3)cc2)cc1,T/C,[1],151 % of control
same,T/C,"dose: 30.0 mg/kg/injection, vehicle: methylcellulose (MC)",119 % of control
same,T/C,"dose: 120.0 mg/kg/injection, vehicle: methylcellulose (MC)",100 % of control
[N-]=[N+]=CC(=O)NCC(=O)NN,T/C,"dose: 62.5 mg/kg/injection, vehicle: saline",115 % of control
same,T/C,"dose: 250.0 mg/kg/injection, vehicle: saline",39 % of control
same,T/C,"dose: 500.0 mg/kg/injection, vehicle: saline",43 % of control
CC(=O)NC1=C(N2CC2)C(=O)C(NC(C)=O)=C(N2CC2)C1=O,T/C,"dose: 0.02 mg/kg/injection, vehicle: carboxymethylcellulose (CMC)",91 % of control
same,T/C,"dose: 0.02 mg/kg/injection, vehicle: methylcellulose (MC)",71 % of control
same,T/C,"dose: 0.03 mg/kg/injection, vehicle: carboxymethylcellulose (CMC)",65 % of control
same,T/C,"dose: 0.05 mg/kg/injection, vehicle: methylcellulose (MC)",69 % of control
same,T/C,"dose: 0.06 mg/kg/injection, vehicle: carboxymethylcellulose (CMC)",51 % of control
same,T/C,"dose: 0.1 mg/kg/injection, vehicle: methylcellulose (MC)",50 % of control
same,T/C,"dose: 0.12 mg/kg/injection, vehicle: carboxymethylcellulose (CMC)",21 % of control
CC1CN(Cc2ccccc2)C(=S)N(c2ccccc2)C1=O (stereo unspecified),T/C,[1],87 % of control
same,T/C,[2],74 % of control
same,T/C,[3],96 % of control
same,T/C,[4],97 % of control
same,T/C,[5],82 % of control
Nc1nc(SCc2ccc([N+](=O)[O-])cc2)c2[nH]cnc2n1,T/C,[6],10 % of control
same,T/C,"dose: 750.0 mg/kg/injection, vehicle: carboxymethylcellulose (CMC)",10 % of control
same,T/C,"dose: 800.0 mg/kg/injection, vehicle: carboxymethylcellulose (CMC)",8 % of control
same,T/C,"dose: 900.0 mg/kg/injection, vehicle: carboxymethylcellulose (CMC)",1 % of control and 5 % of control
same,T/C,"dose: 1000.0 mg/kg/injection, vehicle: carboxymethylcellulose (CMC)",6 % of control
O=C(O)c1cc2ccccc2c2cccc([N+](=O)[O-])c12,T/C,"dose: 1.75 mg/kg/injection, vehicle: carboxymethylcellulose (CMC)",63 % of control
same,T/C,[7],89 % of control
same,T/C,[8],59 % of control
C/C(=N\NC(=O)c1ccncc1)c1cccc(Br)c1,T/C,"dose: 0.9 mg/kg/injection, vehicle: carboxymethylcellulose (CMC)",116 % of control
same,T/C,"dose: 3.7 mg/kg/injection, vehicle: carboxymethylcellulose (CMC)",154 % of control
same,T/C,"dose: 7.5 mg/kg/injection, vehicle: methylcellulose (MC)",34 % of control and 57 % of control
same,T/C,[1],65 % of control and 87 % of control
CCCCNC(=O)c1n[se]nc1N,T/C,"dose: 2.0 mg/kg/injection, vehicle: carboxymethylcellulose (CMC)",76 % of control
same,T/C,"dose: 4.0 mg/kg/injection, vehicle: carboxymethylcellulose (CMC)",87 % of control
Cc1ccccc1CNc1ncnc2[nH]ncc12,T/C,"dose: 5.0 mg/kg/injection, vehicle: saline",79 % of control
same,T/C,"dose: 10.0 mg/kg/injection, vehicle: saline",60 % of control
same,T/C,[9],29 % of control
same,T/C,[10],4 % of control
same,T/C,"dose: 125.0 mg/kg/injection, vehicle: saline",9 % of control
OCCNc1ncnc2c1ncn2C1CCCO1 (stereo unspecified),T/C,"dose: 50.0 mg/kg/injection, vehicle: saline",174 % of control
same,T/C,[10],96 % of control
same,T/C,"dose: 200.0 mg/kg/injection, vehicle: saline",48 % of control
Cc1cc(O)c(C(C)C)cc1S(=O)(=O)O (tested in a mixture with another compound),T/C,[11],78 % of control
same,T/C,"dose: 25.0 mg/kg/injection, vehicle: other",32 % of control
same,T/C,[12],53 % of control
same,T/C,"dose: 50.0 mg/kg/injection, vehicle: other",83 % of control
same,T/C,"dose: 100.0 mg/kg/injection, vehicle: carboxymethylcellulose (CMC)",49 % of control
same,T/C,"dose: 100.0 mg/kg/injection, vehicle: other",44 % of control
same,T/C,"dose: 200.0 mg/kg/injection, vehicle: carboxymethylcellulose (CMC)",42 % of control
same,T/C,"dose: 200.0 mg/kg/injection, vehicle: other",7 % of control
N#Cc1ccc(Nc2cc(Cl)nc(N)n2)cc1,T/C,[1],89 % of control
same,T/C,[2],87 % of control
same,T/C,[3],50 % of control
same,T/C,[4],97 % of control
same,T/C,[5],65 % of control
COC1CC(OS(C)(=O)=O)C(COS(C)(=O)=O)O1 (stereo unspecified),T/C,[9],120 % of control
same,T/C,"dose: 75.0 mg/kg/injection, vehicle: saline",117 % of control
same,T/C,"dose: 225.0 mg/kg/injection, vehicle: saline",104 % of control
Nc1cnc(=O)[nH]c1N,T/C,[13],92 % of control
same,T/C,[14],92 % of control
same,T/C,[15],122 % of control
same,T/C,"dose: 400.0 mg/kg/injection, vehicle: carboxymethylcellulose (CMC)",78 % of control
same,T/C,[6],96 % of control
NNC(=O)NC(=O)NN,T/C,"dose: 13.06 mg/kg/injection, vehicle: carboxymethylcellulose (CMC)",117 % of control
same,T/C,"dose: 26.13 mg/kg/injection, vehicle: carboxymethylcellulose (CMC)",187 % of control
same,T/C,"dose: 52.25 mg/kg/injection, vehicle: carboxymethylcellulose (CMC)",74 % of control
same,T/C,"dose: 104.5 mg/kg/injection, vehicle: carboxymethylcellulose (CMC)",79 % of control
same,T/C,"dose: 3845.0 micrograms/kg/injection, vehicle: carboxymethylcellulose (CMC)",207 % of control
same,T/C,"dose: 7690.0 micrograms/kg/injection, vehicle: carboxymethylcellulose (CMC)",46 % of control
O=C1N(Br)C(=O)C(c2ccc(Cl)cc2)(c2ccc(Cl)cc2)N1Br,T/C,"dose: 1.7 mg/kg/injection, vehicle: carboxymethylcellulose (CMC)",42 % of control
same,T/C,[7],76 % of control
same,T/C,[8],91 % of control
same,T/C,"dose: 14.0 mg/kg/injection, vehicle: carboxymethylcellulose (CMC)",35 % of control and 39 % of control and 43 % of control
same,T/C,"dose: 28.0 mg/kg/injection, vehicle: carboxymethylcellulose (CMC)",35 % of control and 49 % of control
same,T/C,[13],22 % of control and 38 % of control
same,T/C,"dose: 56.0 mg/kg/injection, vehicle: carboxymethylcellulose (CMC)",20 % of control
same,T/C,[14],29 % of control and 35 % of control
same,T/C,"dose: 112.0 mg/kg/injection, vehicle: carboxymethylcellulose (CMC)",38 % of control
same,T/C,[15],14 % of control
CCCCOC(=O)C1(N)CCCC1,T/C,"dose: 3.12 mg/kg/injection, vehicle: carboxymethylcellulose (CMC)",75 % of control
same,T/C,"dose: 6.25 mg/kg/injection, vehicle: carboxymethylcellulose (CMC)",80 % of control
same,T/C,"dose: 12.5 mg/kg/injection, vehicle: carboxymethylcellulose (CMC)",66 % of control
same,T/C,[11],29 % of control and 35 % of control
same,T/C,[12],12 % of control
